Assays:
human factor XIa = human factor XIa (Homo sapiens (Human), UniProt P03951); assay: Measurement of FXIa inhibition; format: biochemical; settings: factor XIa from Kordia, substrate Boc-Glu(OBzl)-Ala-Arg-AMC, fluorescence
Procedure: a.1) Measurement of FXIa Inhibition
(§1) The factor XIa inhibition of the substances according to the invention is determined using a biochemical test system which utilizes the reaction of a peptidic factor XIa substrate to determine the enzymatic activity of human factor XIa. Here, factor XIa cleaves from the peptic factor XIa substrate the C-terminal aminomethylcoumarin (AMC), the fluorescence of which is measured. The determinations are carried out in microtitre plates.
1 μl of the diluted substance solutions is placed into each of the wells of white microtitre plates from Greiner (384 wells). […] After 15 min of incubation, the enzyme reaction is started by addition of 20 μl of the factor XIa substrate Boc-Glu(OBzl)-Ala-Arg-AMC dissolved in assay buffer (10 μM in assay buffer) from Bachem, the mixture is incubated at room temperature (22° C.) for 30 min and fluorescence is then measured (excitation: 360 nm, emission: 460 nm). The measured emissions of the test batches with test substance are compared to those of control batches without test substance (only dimethyl sulphoxide instead of test substance in dimethyl sulphoxide), and IC50 values are calculated from the concentration/activity relationships.

human plasma kallikrein = human plasma kallikrein (Homo sapiens (Human), UniProt P03952); assay: Determination of the plasma kallikrein activity; format: biochemical; settings: plasma kallikrein from Kordia, substrate H-Pro-Phe-Arg-AMC, fluorescence
Chain of human plasma kallikrein (P03952 391-638): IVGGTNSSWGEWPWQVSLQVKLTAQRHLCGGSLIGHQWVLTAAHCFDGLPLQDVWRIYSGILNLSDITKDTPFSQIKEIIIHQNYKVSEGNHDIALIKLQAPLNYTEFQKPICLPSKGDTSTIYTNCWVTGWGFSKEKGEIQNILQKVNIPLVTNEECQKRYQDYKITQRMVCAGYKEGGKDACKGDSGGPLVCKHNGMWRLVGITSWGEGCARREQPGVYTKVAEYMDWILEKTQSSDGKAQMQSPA
Chain of human plasma kallikrein (P03952 20-390 partner): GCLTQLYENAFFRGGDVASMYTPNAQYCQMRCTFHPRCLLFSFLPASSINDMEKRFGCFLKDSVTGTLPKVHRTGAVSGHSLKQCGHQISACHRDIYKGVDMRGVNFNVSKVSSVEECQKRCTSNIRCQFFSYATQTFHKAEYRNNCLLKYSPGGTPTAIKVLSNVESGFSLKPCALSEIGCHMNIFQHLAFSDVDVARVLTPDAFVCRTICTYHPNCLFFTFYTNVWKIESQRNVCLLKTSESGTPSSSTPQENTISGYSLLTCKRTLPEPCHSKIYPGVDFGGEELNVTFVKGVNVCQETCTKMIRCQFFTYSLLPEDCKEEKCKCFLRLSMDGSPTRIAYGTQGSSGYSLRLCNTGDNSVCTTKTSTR
Procedure: a.5) Determination of the Plasma Kallikrein Activity
as §1, with “To determine the plasma kallikrein” for “The factor XIa”, “invention,” for “invention is determined using”, “system is used” for “system”, “plasma kallikrein” for “factor XIa”, “plasma kallikrein.” for “factor XIa.”
1 μl of the diluted substance solutions is placed into each of the wells of white microtitre plates from Greiner (384 wells). 20 μl of assay buffer (50 mM Tris/HCl pH 7.4; 100 mM sodium chloride solution; 5 mM of calcium chloride solution; 0.1% of bovine serum albumin) and 20 μl of plasma kallikrein from Kordia (0.6 nM in assay buffer) are then added successively. After 15 min of incubation, the enzyme reaction is started by addition of 20 μl of the substrate H-Pro-Phe-Arg-AMC dissolved in assay buffer (10 μM in assay buffer) from Bachem, the mixture is incubated at room temperature (22° C.) for 30 min and fluorescence is then measured (excitation: 360 nm, emission: 460 nm). The measured emissions of the test batches with test substance are compared to those of control batches without test substance (only dimethyl sulphoxide instead of test substance in dimethyl sulphoxide), and IC50 values are calculated from the concentration/activity relationships.

Chain of human factor XIa (P03951 388-625): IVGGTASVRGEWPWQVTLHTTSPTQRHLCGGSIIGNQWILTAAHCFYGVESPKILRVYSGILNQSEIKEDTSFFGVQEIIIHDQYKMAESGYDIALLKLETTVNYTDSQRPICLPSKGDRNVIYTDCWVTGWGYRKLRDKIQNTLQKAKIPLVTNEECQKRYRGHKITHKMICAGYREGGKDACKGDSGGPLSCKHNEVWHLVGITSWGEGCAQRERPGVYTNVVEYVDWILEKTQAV
Chain of human factor XIa (P03951 19-387 partner): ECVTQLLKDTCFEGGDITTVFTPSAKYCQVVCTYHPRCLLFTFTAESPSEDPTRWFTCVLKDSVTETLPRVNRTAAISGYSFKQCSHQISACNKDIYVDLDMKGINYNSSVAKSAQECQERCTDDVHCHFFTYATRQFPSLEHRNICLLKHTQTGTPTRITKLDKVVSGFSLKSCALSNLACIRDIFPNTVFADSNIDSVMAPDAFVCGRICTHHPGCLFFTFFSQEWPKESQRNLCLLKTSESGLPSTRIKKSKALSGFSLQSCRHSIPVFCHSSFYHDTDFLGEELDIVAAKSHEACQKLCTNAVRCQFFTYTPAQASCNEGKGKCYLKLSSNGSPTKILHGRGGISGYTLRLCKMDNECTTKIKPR

Row | SMILES | IC50 (human factor XIa) | IC50 (human plasma kallikrein)
1 | CCC(C(=O)Nc1ccc(-c2noc(=O)[nH]2)cc1)n1cc2c(cc1=O)-c1cc(Cl)ccc1CCNC2=O (stereo not drawn) [Example 7, 2-(11-Chloro-2,5-dioxo-5,6,7,8-tetrahydropyrido[3,4-e][3]benzazocin-3(2H)-yl)-N-[4-(5-oxo-4,5-dihydro-1,2,4-oxadiazol-3-yl)phenyl]butanamide] | 44 nM | 3300 nM
2 | CO[C@H]1CC[C@H](CC(C(=O)Nc2ccc(C(N)=O)c(F)c2)n2cc3c(cc2=O)-c2cc(Cl)ccc2CC2(CC2)NC3=O)CC1 (stereo partly drawn) [Example 26, 4-{[2-(11′-Chloro-2′,5′-dioxo-2′,5′,6′,8′-tetrahydro-3′H-spiro[cyclopropane-1,7′-pyrido[3,4-e][3]benzazocine]-3′-yl)-3-(trans-4-methoxycyclohexyl)propanoyl]amino}-2-fluorobenzamide] | 34 nM | 740 nM
3 | CO[C@H]1CC[C@H](CC(C(=O)Nc2ccc3[nH]c(=O)[nH]c3c2)n2cc3c(cc2=O)-c2cc(Cl)ccc2CC2(CC2)NC3=O)CC1 (stereo partly drawn) [Example 27, 2-(11′-Chloro-2′,5′-dioxo-2′,5′,6′,8′-tetrahydro-3′H-spiro[cyclopropane-1,7′-pyrido[3,4-e][3]benzazocine]-3′-yl)-3-(trans-4-methoxycyclohexyl)-N-(2-oxo-2,3-dihydro-1H-benzimidazol-5-yl)propanamide] | 18 nM | 250 nM
4 | CCC(C(=O)Nc1ccc(C(=O)O)cc1)n1cc2c(cc1=O)-c1cc(Cl)ccc1CCNC2=O (stereo not drawn) [Example 6, 4-{[2-(11-Chloro-2,5-dioxo-5,6,7,8-tetrahydropyrido[3,4-e][3]benzazocin-3(2H)-yl)butanoyl]amino}benzoic acid] | 28 nM | 1900 nM
5 | CCC(C(=O)Nc1ccc(C(=O)O)cc1)n1cc2c(cc1=O)-c1cc(Cl)ccc1CNC2=O (stereo not drawn) [Example 1, 4-{[2-(10-Chloro-2,5-dioxo-2,5,6,7-tetrahydro-3H-pyrido[3,4-d][2]benzazepin-3-yl)butanoyl]amino}benzoic acid] | 420 nM | > 10000 nM
6 | CCC(C(=O)Nc1ccc(-c2noc(=O)[nH]2)cc1)n1cc2c(cc1=O)-c1cc(Cl)ccc1CNC2=O (stereo not drawn) [Example 2, 2-(10-Chloro-2,5-dioxo-2,5,6,7-tetrahydro-3H-pyrido[3,4-d][2]benzazepin-3-yl)-N-[4-(5-oxo-4,5-dihydro-1,2,4-oxadiazol-3-yl)phenyl]butanamide] | 280 nM | 4900 nM
7 | COCCC(C(=O)Nc1ccc(C(N)=O)c(F)c1)n1cc2c(cc1=O)-c1cc(Cl)ccc1CC1(CC1)NC2=O (stereo not drawn) [Example 13, 4-{[2-(11′-Chloro-2′,5′-dioxo-2′,5′,6′,8′-tetrahydro-3′H-spiro[cyclopropane-1,7′-pyrido[3,4-e][3]benzazocine]-3′-yl)-4-methoxybutanoyl]amino}-2-fluorobenzamide] | 27 nM | 780 nM
8 | O=C1NC2(CC2)Cc2ccc(Cl)cc2-c2cc(=O)n(C(Cc3ccccc3)C(=O)Nc3ccc4[nH]c(=O)[nH]c4c3)cc21 (stereo not drawn) [Example 29, 2-(11′-Chloro-2′,5′-dioxo-2′,5′,6′,8′-tetrahydro-3′H-spiro[cyclopropane-1,7′-pyrido[3,4-e][3]benzazocine]-3′-yl)-N-(2-oxo-2,3-dihydro-1H-benzimidazol-5-yl)-3-phenylpropanamide] | 4.5 nM | 42 nM

Other lines, results leading:

Row | IC50 (human factor XIa) | IC50 (human plasma kallikrein) | SMILES
9 | 8.4 nM | 230 nM | COCCC(C(=O)Nc1ccc2c(=O)n(C)[nH]c2c1)n1cc2c(cc1=O)-c1cc(Cl)ccc1CC1(CC1)NC2=O (stereo not drawn) [Example 19, 2-(11′-Chloro-2′,5′-dioxo-2′,5′,6′,8′-tetrahydro-3′H-spiro[cyclopropane-1,7′-pyrido[3,4-e][3]benzazocine]-3′-yl)-4-methoxy-N-(2-methyl-3-oxo-2,3-dihydro-1H-indazol-6-yl)butanamide]
10 | 2.8 nM | 42 nM | COCCC(C(=O)Nc1ccc2nn(C)cc2c1)n1cc2c(cc1=O)-c1cc(Cl)ccc1CC(CF)NC2=O (stereo not drawn) [Example 31, 2-[11-Chloro-7-(fluoromethyl)-2,5-dioxo-5,6,7,8-tetrahydropyrido[3,4-e][3]benzazocin-3(2H)-yl]-4-methoxy-N-(2-methyl-2H-indazol-5-yl)butanamide]
11 | 8.2 nM | 240 nM | COCCC(C(=O)Nc1ccc2nn(C)cc2c1)n1cc2c(cc1=O)-c1cc(Cl)ccc1CC1(CC1)NC2=O (stereo not drawn) [Example 15, 2-(11′-Chloro-2′,5′-dioxo-2′,5′,6′,8′-tetrahydro-3′H-spiro[cyclopropane-1,7′-pyrido[3,4-e][3]benzazocine]-3′-yl)-4-methoxy-N-(2-methyl-2H-indazol-5-yl)butanamide]
12 | 21 nM | 330 nM | COCCC(C(=O)Nc1ccc2[nH]ncc2c1)n1cc2c(cc1=O)-c1cc(Cl)ccc1CC1(CC1)NC2=O (stereo not drawn) [Example 18, 2-(11′-Chloro-2′,5′-dioxo-2′,5′,6′,8′-tetrahydro-3′H-spiro[cyclopropane-1,7′-pyrido[3,4-e][3]benzazocine]-3′-yl)-N-(1H-indazol-5-yl)-4-methoxybutanamide]
